Laboratory results from article PMC10257182, “Discovery of senolytics using machine learning” (Nature Communications, 2023).
Where “and” joins values, the source holds several entries; their conditions need not be identical. Identical values can stand only once. Like-named read-outs stand apart in the source and are kept apart here.

Key:
Type in all cases: cell-based, human
[1] = system: senescent IMR90 ER:RAS cells; assay: Cell survival assay using crystal violet staining, OIS, senescent cells; parameters: % Cell Survival: concentration or dose not given beside the values; details: for % Cell Survival / Mean (cell survival, Tukey test details): FIG 4B, ER:RAS cells; for % Cell Survival: individual replicate values, ER:STOP DMSO = 100; for Mean (cell survival, Tukey test details): mean of n=12 as fraction of STOP DMSO = 1
Experimental: (§1) Equal numbers of control and senescent cells were plated at high density on multiwell plates just before senolytic treatment addition. After treatment, cells were fixed on 0.5% glutaraldehyde (Sigma) and then dried at RT overnight. Then, wells were stained with crystal violet solution for 3 h, washed and dried. Once they were completely dry, the plates were scanned for records. Quantification was performed extracting the staining with 1% acetic acid and measuring the final solution by absorbance at 595 nm.

[2] = system: control IMR90 ER:STOP cells; assay: Cell survival assay using crystal violet staining, OIS, control cells; parameters: % Cell Survival: concentration or dose not given beside the values; details: for % Cell Survival / Mean (cell survival, Tukey test details): FIG 4B, ER:STOP cells; for % Cell Survival: individual replicate values, ER:STOP DMSO = 100; for Mean (cell survival, Tukey test details): mean of n=12 as fraction of STOP DMSO = 1
Experimental: as §1

[3] = system: IMR90 cells at passage 27 (replicative senescence); assay: Cell survival assay using crystal violet staining, replicative senescence; parameters: % Cell Survival: concentration or dose not given beside the values; details: FIG 4C; Replicative Senescence (RS) cells; individual replicate values, Control DMSO = 100
Text: IMR90 (CCL-186) human foetal lung fibroblasts and A549 (CCL-185) human lung adenocarcinoma cells were obtained from the American Type Culture Collection (ATCC, Manassas, VA). The cell lines were confirmed to be mycoplasma negative (Lonza MycoAlert, cat #LT07-118). IMR90 ER:RAS is a derivative of IMR90 cells expressing a switchable version of oncogenic H-Ras[84]. IMR90 ER:RAS and A549 cells were maintained in Dulbecco’s Modified Eagle Medium (DMEM, ThermoFisher) supplemented with foetal bovine serum (10%), L-glutamine (2 mM, ThermoFisher), and antibiotic-antimycotic solution (1%, ThermoFisher) and incubated under standard tissue culture conditions (37 °C and 5% CO2). For induction of the senescent phenotype, IMR90-ER:RAS cells were cultured in hydroxytamoxifen (4-OHT) (Sigma) added media at 100 nM final concentration. IMR90 were kept in culture for over 27 passages for replicative senescence. Cells were tested for mycoplasma on a regular basis.
as §1

[4] = system: caspase 3/7 activity in senescent IMR90 ER:RAS cells; assay: Caspase 3/7 activity assay; parameters: Caspase 3/7 activity time course (SUP FIG 9F) / Caspase 3/7 activity time course (SUP FIG 9F exp not shown): unit not given here; details: for Caspase 3/7 activity time course (SUP FIG 9F) / Caspase 3/7 activity time course (SUP FIG 9F exp not shown): ER:RAS cells; for Caspase 3/7 activity time course (SUP FIG 9F exp not shown): second experiment, data not shown; for Casp3/7 activity (percentage of green fluorescent cells): ER:RAS, 100 nM 4OHT, 10 nM compound, 35 h
Experimental: IMR90 ER:STOP and IMR90 ER:RAS cells were cultured with 100 nM 4-OHT for 5 days. Cell were then plated in a multiwell plate at high density. Once cells were attached, Caspase 3/7 probe (C10423 Invitrogen) and senolytic drugs, oleandrin, ouabain and periplocin at 10 nM, were added to the media and cultured for 36 h. Time lapse imaging was recorded every hour on a Leica AF6500 microscope (10x). ImageJ 1.53k was used for positive cell counting.

[5] = system: proliferating IMR90 cells; assay: BrdU incorporation proliferation assay; details: for % BrdU positive cells, mean (Test details, Mean 2) / % BrdU positive cells: IMR90 cells; for % BrdU positive cells, mean (Test details, Mean 2): n 4; for % BrdU positive cells: single replicates (SUP FIG 9G); for proliferation by BrdU incorporation, in words: proliferating IMR90 cells, 10 nM
Experimental: 5-bromo-2′-deoxyuridine (BrdU) incorporation was used to measure the number of cells actively replicating DNA. Cells were incubated with 10 μM BrdU (85811, Sigma) for 18 h. After that, cells were fixed with 4% Paraformaldehyde, permeabilised, blocked and then stained for immunofluorescence using BrdU primary antibody (555627 BD Pharmigen), Alexa fluor secondary for detection, and DAPI staining for cell counting. Acquisition was done with a Nikon TI2 microscope and analysis was performed with ImageJ for cell counting.

[6] = system: Na+/K+ ATPase pump (intracellular K+) in senescent IMR90 ER:RAS cells; assay: Intracellular K+ determination with Asante staining, OIS; details: FIG 4E, ER:RAS cells; for Asante Mean intensity: individual replicate values; for Mean (Asante Mean intensity, Tukey test details): mean of n=7
Experimental: Cells were cultured for control and senescent phenotype and then treated with the senolytics oleandrin, ouabain and periplocin at 10 nM for 72 h. Asante (Asante Potassium Green-2 AM, abcam ab142806) was added to the culture 30 min before fixation, following manufacturer instructions. DAPI staining was done before image acquisition on Nikon TI2 microscope (20x). Image analysis was performed using ImageJ 1.53k for setting intensity threshold and measuring mean intensity.

[7] = system: NOXA mRNA in senescent IMR90 ER:RAS cells; assay: NOXA mRNA expression by RT-qPCR, OIS; details: ER:RAS cells, 10 nM; relative to ER:STOP DMSO = 1; individual replicate values
Experimental: (§2) Total RNA was isolated using RNAeasy kit (Quiagen). cDNA was generated with reverse transcriptase iScript (Bio-Rad). RT-qPCR was performed using SYBR Select Master Mix (Applied Biosystems) in OneStepPlus detection system (Applied Biosystems). Oligos for amplification were: NOXA Fw-[…] and Rv-[…]; b-ACTIN Fw-[…] and Rv-[…]; IL1a Fw-[…] and Rv- […]; IL1b Fw-[…] and Rv- […]; IL8 Fw-[…] and Rv-[…]; p16 Fw-CGGTCGGAGGCCGATCCAG and Rv- […]; p21Fw-[…] and Rv- […].

[8] = system: NOXA mRNA in IMR90 cells at passage 27; assay: NOXA mRNA expression by RT-qPCR, replicative senescence; details: 10 nM; for NOXA mRNA expression: Replicative Senescence cells, relative to Control DMSO = 1, individual replicate values
Experimental: as §2

[9] = system: A549 cells treated with 100 μM etoposide; assay: Cell survival assay using crystal violet staining, TIS, senescent cells; details: fraction of Control DMSO = 1, n 15

SMILES	% Cell Survival [1]	Mean (cell survival, Tukey test details) [1]	% Cell Survival [2]	Mean (cell survival, Tukey test details) [2]	% Cell Survival [3]	Caspase 3/7 activity time course (SUP FIG 9F) ([4]; 01:00:00 hours)	Caspase 3/7 activity time course (SUP FIG 9F exp not shown) ([4]; 01:00:00 hours)	Caspase 3/7 activity time course (SUP FIG 9F) ([4]; 05:00:00 hours)	Caspase 3/7 activity time course (SUP FIG 9F exp not shown) ([4]; 05:00:00 hours)	Caspase 3/7 activity time course (SUP FIG 9F) ([4]; 10:00:00 hours)	Caspase 3/7 activity time course (SUP FIG 9F exp not shown) ([4]; 10:00:00 hours)	Caspase 3/7 activity time course (SUP FIG 9F) ([4]; 15:00:00 hours)	Caspase 3/7 activity time course (SUP FIG 9F exp not shown) ([4]; 15:00:00 hours)	Caspase 3/7 activity time course (SUP FIG 9F) ([4]; 20:00:00 hours)	Caspase 3/7 activity time course (SUP FIG 9F exp not shown) ([4]; 20:00:00 hours)	Caspase 3/7 activity time course (SUP FIG 9F) ([4]; 1 day, 1:00:00)	Caspase 3/7 activity time course (SUP FIG 9F exp not shown) ([4]; 1 day, 1:00:00)	Caspase 3/7 activity time course (SUP FIG 9F) ([4]; 1 day, 6:00:00)	Caspase 3/7 activity time course (SUP FIG 9F exp not shown) ([4]; 1 day, 6:00:00)	Caspase 3/7 activity time course (SUP FIG 9F) ([4]; 1 day, 11:00:00)	other results
C[C@@H]1O[C@@H](O[C@H]2C[C@@H](O)[C@]3(CO)[C@H]4[C@H](O)C[C@]5(C)[C@@H](C6=CC(=O)OC6)CC[C@]5(O)[C@@H]4CC[C@]3(O)C2)[C@H](O)[C@H](O)[C@H]1O [Ouabain, ouabain, reference compound]	99% and 102.3% and 88.5% and 93% and 111.6% and 79.7% and 87.5% and 77.4% and 104.8% and 84.4% and 78.3% and 72%	0.8988	100.7% and 91.1% and 79.5% and 88.8% and 108.2% and 92.7% and 95.3% and 93.9% and 97.9% and 80.1% and 99.8% and 95%	0.9358	94.8% and 97.2% and 95.8% and 90.6% and 106.9% and 98.6% and 108.7% and 109.7% and 103.6% and 106.2% and 99.7%	1.9	0.1	1.9	0.95	2.6	1.45	2.6	1.55	3	2.7	4	4.6	3.9	7.55	3.9	cytotoxic activity / cellular content (crystal violet), in words [1]: no cytotoxic activity; cytotoxic activity (crystal violet), in words [2]: no cytotoxic activity; Caspase 3/7 activity time course (SUP FIG 9F exp not shown) ([4]; 1 day, 11:00:00): 8.25; Casp3/7 activity (percentage of green fluorescent cells) [4]: 6.4%; % BrdU positive cells, mean (Test details, Mean 2) [5]: 73.84%; % BrdU positive cells [5]: 69.37% and 73.68% and 73.67% and 78.62%; proliferation by BrdU incorporation, in words [5]: none of the cardiac glycosides induced unwanted changes in proliferation; Asante Mean intensity [6]: 73.6 and 91 and 73.5 and 72.9 and 82 and 66.9; Mean (Asante Mean intensity, Tukey test details) [6]: 76.21; NOXA mRNA expression [7]: 4.99 and 3.07 and 6.94 and 6.96; NOXA mRNA expression, group mean (Test details, Mean 2) ([8]; Replicative Senescence (RS) cells, mean of n=3): 15.44; NOXA mRNA expression [8]: 23.42 and 22.01 and 0.88; Cell survival, mean (Test details, Mean 2) [9]: 0.9058
CO[C@H]1C[C@H](O[C@H]2CC[C@]3(C)[C@H]4CC[C@]5(C)[C@@H](C6=CC(=O)OC6)CC[C@]5(O)[C@@H]4CC[C@]3(O)C2)O[C@H](C)[C@H]1O[C@@H]1O[C@H](CO)[C@@H](O)[C@H](O)[C@H]1O [Periplocin, periplocin]	119.4% and 103.3% and 90.2% and 103.2% and 120.1% and 97.6% and 95% and 114.9% and 93.3% and 103% and 92.4%	1.03	103.3% and 93.7% and 87.3% and 112.7% and 104.8% and 100.7% and 97.3% and 88.4% and 100.5% and 85.6% and 102.9% and 98.7%	0.9799	127.6% and 99.2% and 95.4% and 100.9% and 115.7% and 129.6% and 84.9% and 94.7% and 133.6% and 88.7% and 125.7% and 118.8%	1.7	0.05	2	0.2	2.7	1.2	2.7	1.2	3	2.55	3.5	3.9	4	6.15	4.8	cytotoxic activity / cellular content (crystal violet), in words ([1]; IMR90-ER:RAS cells undergoing OIS, 10 nM, 72 h): no cytotoxic activity; cytotoxic activity (crystal violet), in words ([2]; IMR90-ER:STOP proliferating control cells, 10 nM, 72 h): no cytotoxic activity; Caspase 3/7 activity time course (SUP FIG 9F exp not shown) ([4]; 1 day, 11:00:00): 8.35; Casp3/7 activity (percentage of green fluorescent cells) [4]: 6.2%; % BrdU positive cells, mean (Test details, Mean 2) [5]: 68.52%; % BrdU positive cells [5]: 63.29% and 64.13% and 67.53% and 79.11%; proliferation by BrdU incorporation, in words [5]: none of the cardiac glycosides induced unwanted changes in proliferation; Asante Mean intensity [6]: 75.6 and 74 and 75.4 and 73.1 and 78 and 73 and 65.7; Mean (Asante Mean intensity, Tukey test details) [6]: 73.54; NOXA mRNA expression [7]: 6.84 and 6.41 and 10.09 and 3.28; NOXA mRNA expression [8]: 5.65 and 6.34 and 7.72; Cell survival, mean (Test details, Mean 2) [9]: 0.873
